Results as given in the NIST ThermoML archive (doi:10.1021/acs.jced.7b00005).
± gives the expanded uncertainty stated by the source.

Conditions: Liquid, Ebulliometric method (Recirculating still)

vapor or sublimation pressure (295.25 K): 10 ± 0.3 kPa | vapor or sublimation pressure (295.4 K): 10 ± 0.3 kPa
Structure (SMILES): CC#N [acetonitrile]
